For the experiment, the system named is M17-TAU P301L cells. As to the kind of experiment: Tau-induced toxicity experiment: LDH leakage of retinoic acid incubated M17-TAU P301L cells. The note with it: Homo sapiens, Neuroblastoma cell, 168 h; reduction of LDH activity of retinoic acid incubated M17-TAU P301L neuroblastoma cells, 7 days. The experiment is classed as cell-based. The text has this:
A TAU expression plasmid was constructed by sub-cloning the cDNA of human TAU-P301L (encoding for TAU with proline 301 substituted by a leucine residue) into mammalian expression vector pcDNA3.1 resulting in plasmid pcDNA3.1-TAU P301L. Plasmids pcDNA3.1 and pcDNA3.1-TAU P301L were transfected to human neuroblastoma cells ([…]; ATCC No. CRL-2267) and independent clonal lines with the plasmids stably integrated into the genome were selected. […] Expression of the TAU P301L genes in the cell lines was confirmed by Western analysis.
In degenerated or dead cells lactate dehydrogenase (LDH) is leaked out of the cells into the extracellular environment due to a loss of plasma-membrane integrity. This principle was used to determine cytotoxicity by quantifying the level of leaked LDH into the growth medium.
The detailed method for determining TAU cytotoxicity was as follows: From appropriate precultures of M17-3.1 and M17-TAU(P301L) cells were seeded at 2500 cells/cm2 in Optimem Reduced Serum without phenol red (Gibco, Cat. 31985-047) supplemented with 1% fetal calf serum, 1 mM sodium pyruvate, 1× non-essential amino acids, 500 μg/ml G418 0.5× antibiotic/antimycotic. After 3 h of incubation at 37° C./5% CO2 1 volume of Optimem Reduced Serum (same as described above; except without fetal calf serum) supplemented with 2.5 μM retinoic acid (RA) was added. The cells were further incubated for 7 days. Subsequently, LDH activity was determined using Promega Cytotox 96 Non-Radioactive cytotoxicity assay, (Cat. G1780) according the supplier's instructions.
The M17-TAU P301L cell line made it possible to assess the ability of novel compounds to counteract TAU cytotoxicity. […] These measurements were used to calculate EC50 values of table 2.
(LDH in the medium is a marker of cell lysis.)

Molecule `Cc1ccc(Cc2cccc(C(=O)NCCc3c[nH]c4ccc(Cl)cc34)c2)cc1` [Cpd034, N-(2-(5-chloro-1H-indol-3-yl)ethyl)-3-(4-methylbenzyl)benzamide] showed an EC50 of 0.062 µM. That is a double-digit nanomolar value. The result for `O=C(NCCc1c[nH]c2ccc(Cl)cc12)c1ccc(Cc2ccc(Cl)cc2)cc1` [Cpd045, N-(2-(5-chloro-1H-indol-3-yl)ethyl)-4-(4-chlorobenzyl)benzamide] reads 0.022 µM. Turning to `O=C(NCc1c[nH]c2ccc(Cl)cc12)c1ccc(Cc2cc(F)cc(F)c2)cc1` [Cpd073, N-((5-chloro-1H-indol-3-yl)methyl)-4-(3,5-difluorobenzyl)benzamide], the 50% effective concentration (EC50) was determined as 0.242 µM.

As to `N#Cc1ccccc1Cc1ccc(C(=O)NCCc2c[nH]c3ccc(Cl)cc23)cc1` [Cpd059, N-(2-(5-chloro-1H-indol-3-yl)ethyl)-4-(2-cyanobenzyl)benzamide], it took 0.068 µM to reach a half-maximal effect (EC50). The result for `Cc1[nH]c2ccc(Cl)cc2c1CCNC(=O)c1ccc(Cc2cccc(F)c2)cc1` [Cpd098, N-(2-(5-chloro-2-methyl-1H-indol-3-yl)ethyl)-4-(3-fluorobenzyl)benzamide] reads 0.535 µM; that for `O=C(NCCc1c[nH]c2ccc(Cl)cc12)c1ccc(CNCc2ccccc2)cc1` [Cpd019, 4-((benzylamino)methyl)-N-(2-(5-chloro-1H-indol-3-yl)ethyl)benzamide], 0.103 µM. Turning to `O=C(NCCc1c[nH]c2ccc(N3CCOCC3)cc12)c1ccc(Cc2cccc(F)c2)cc1` [Cpd116, 4-(3-fluorobenzyl)-N-(2-(5-morpholino-1H-indol-3-yl)ethyl)benzamide], the EC50 was 0.166 µM. The result for `O=C(NCCc1c[nH]c2ccc(Cl)cc12)c1ccc(Cc2ccccc2Cl)cc1` [Cpd047, N-(2-(5-chloro-1H-indol-3-yl)ethyl)-4-(2-chlorobenzyl)benzamide] reads 0.065 µM; that for `O=C(NCCc1c[nH]c2ccc(Cl)cc12)c1cccc(Cc2ccc(F)cc2)c1` [Cpd052, N-(2-(5-chloro-1H-indol-3-yl)ethyl)-3-(4-fluorobenzyl)benzamide], 0.02 µM. Next, `O=C(NCCc1c[nH]c2ccc(Cl)cc12)c1cccc(Oc2ccccc2)c1` [Cpd095, N-(2-(5-chloro-1H-indol-3-yl)ethyl)-3-phenoxybenzamide]: 0.241 µM. Next, `Cc1cccc(C)c1Cc1ccc(C(=O)NCCc2c[nH]c3ccc(Cl)cc23)cc1` [Cpd062, N-(2-(5-chloro-1H-indol-3-yl)ethyl)-4-(2,6-dimethylbenzyl)benzamide]: 0.398 µM. Take `O=C(NCCc1c[nH]c2ccc(Cl)cc12)c1cccc(CNCc2ccccc2)c1` [Cpd023, 3-((benzylamino)methyl)-N-(2-(5-chloro-1H-indol-3-yl)ethyl)benzamide]: it took 0.094 µM to reach a half-maximal effect (EC50). In turn, `O=C(NCc1c[nH]c2ccc(Cl)cc12)c1ccc(Cc2cccc(F)c2)cc1` [Cpd071, N-((5-chloro-1H-indol-3-yl)methyl)-4-(3-fluorobenzyl)benzamide] had an EC50 of 0.277 µM. This EC50 is about 2.9-fold higher than that of the molecule before.

As to `O=C(NCCc1c[nH]c2ccc(Cl)cc12)c1cccc(Cc2cccc(F)c2)n1` [Cpd117, N-(2-(5-chloro-1H-indol-3-yl)ethyl)-6-(3-fluorobenzyl)picolinamide], a half-maximal effect (EC50) was put at 0.109 µM. Next, `COc1ccccc1Cc1cccc(C(=O)NCCc2c[nH]c3ccc(Cl)cc23)c1` [Cpd030, N-(2-(5-chloro-1H-indol-3-yl)ethyl)-3-(2-methoxybenzyl)benzamide]: 0.096 µM; `O=C(NCCc1c[nH]c2ccc(Cl)cc12)c1cccc(Cc2cccc(F)c2)c1` [Cpd053, N-(2-(5-chloro-1H-indol-3-yl)ethyl)-3-(3-fluorobenzyl)benzamide]: 0.017 µM; `O=C(NCCc1c[nH]c2ccc(Cl)cc12)c1cccc(Cc2ccc(C(F)(F)F)cc2)c1` [Cpd040, N-(2-(5-chloro-1H-indol-3-yl)ethyl)-3-(4-(trifluoromethyl)benzyl)benzamide]: 0.103 µM. Next, `O=C(NCCc1c[nH]c2ccc(Cl)cc12)c1cccc(Cc2cccc(Cl)c2)c1` [Cpd055, N-(2-(5-chloro-1H-indol-3-yl)ethyl)-3-(3-chlorobenzyl)benzamide]: 0.036 µM; `O=C(NCCc1c[nH]c2ccc(Cl)cc12)c1ccc(Cc2cccnc2)cc1` [Cpd085, N-(2-(5-chloro-1H-indol-3-yl)ethyl)-4-(pyridin-3-ylmethyl)benzamide]: 0.117 µM. The result for `COc1cccc(Cc2cccc(C(=O)NCCc3c[nH]c4ccc(Cl)cc34)c2)c1` [Cpd058, N-(2-(5-chloro-1H-indol-3-yl)ethyl)-3-(3-methoxybenzyl)benzamide] reads 0.125 µM; that for `O=C(NCCc1c[nH]c2ccc(Cl)cc12)c1ccc(Cc2cc(F)ccc2F)cc1` [Cpd102, N-(2-(5-chloro-1H-indol-3-yl)ethyl)-4-(2,5-difluorobenzyl)benzamide], 0.049 µM.

The molecule `O=C(NCCc1c[nH]c2ccc(Cl)cc12)c1ccc(Cn2ccnc2)cc1` [Cpd012, 4-((1H-imidazol-1-yl)methyl)-N-(2-(5-chloro-1H-indol-3-yl)ethyl)benzamide] came in with an EC50 of 0.486 µM.

In turn, `O=C(NCCc1c[nH]c2ccc(Cl)cc12)c1ccc(Cc2cccc(F)c2)cc1F` [Cpd099, N-(2-(5-chloro-1H-indol-3-yl)ethyl)-2-fluoro-4-(3-fluorobenzyl)benzamide] had an EC50 of 0.027 µM. This EC50 is about 18-fold lower than that of the molecule before. The result for `O=C(NCCc1c[nH]c2ccc(Cl)cc12)c1ccc(Cc2ccccc2)cc1` [Cpd015, 4-benzyl-N-(2-(5-chloro-1H-indol-3-yl)ethyl)benzamide] reads 0.154 µM; that for `O=C(NCCc1c[nH]c2ccc(Cl)cc12)c1ccc(Cc2cccc(F)c2)cc1` [Cpd048, N-(2-(5-chloro-1H-indol-3-yl)ethyl)-4-(3-fluorobenzyl)benzamide], 0.013 µM; that for `O=C(NCCc1c[nH]c2ccc(Cl)cc12)c1cccc(Cc2ccco2)c1` [Cpd077, N-(2-(5-chloro-1H-indol-3-yl)ethyl)-3-(furan-2-ylmethyl)benzamide], 0.017 µM. Next, `O=C(NCCc1c[nH]c2ccc(Cl)cc12)c1cccc(Cc2cncc(F)c2)c1` [Cpd069, N-(2-(5-chloro-1H-indol-3-yl)ethyl)-3-((5-fluoropyridin-3-yl)methyl)benzamide]: 0.09 µM.

Regarding `O=C(NCCc1c[nH]c2ccc(Cl)cc12)c1cccc(CNCc2cccs2)c1` [Cpd022, N-(2-(5-chloro-1H-indol-3-yl)ethyl)-3-((thiophen-2-ylmethylamino)methyl)benzamide], the EC50 was found to be 0.159 µM. On to `O=C(NCCc1c[nH]c2ccc(Cl)cc12)c1ccc(Oc2cccc(F)c2)cc1` [Cpd105, N-(2-(5-chloro-1H-indol-3-yl)ethyl)-4-(3-fluorophenoxy)benzamide], for which a half-maximal response (EC50) required 0.112 µM. The EC50 values of the last two molecules are within 1.5-fold of each other. Molecule `O=C(NCCc1c[nH]c2ccc(Cl)cc12)c1ccc(CNCc2cccs2)cc1` [Cpd026, N-(2-(5-chloro-1H-indol-3-yl)ethyl)-4-((thiophen-2-ylmethylamino)methyl)benzamide] returned an EC50 of 0.083 µM. The result for `O=C(NCCc1c[nH]c2ccc(Cl)cc12)c1cccc(Cc2ccoc2)c1` [Cpd083, N-(2-(5-chloro-1H-indol-3-yl)ethyl)-3-(furan-3-ylmethyl)benzamide] reads 0.056 µM; that for `N#Cc1ccccc1Cc1cccc(C(=O)NCCc2c[nH]c3ccc(Cl)cc23)c1` [Cpd060, N-(2-(5-chloro-1H-indol-3-yl)ethyl)-3-(2-cyanobenzyl)benzamide], 0.116 µM. The result for `O=C(NCCc1c[nH]c2ccc(F)cc12)c1cccc(Cc2cccc(F)c2)c1` [Cpd082, N-(2-(5-fluoro-1H-indol-3-yl)ethyl)-3-(3-fluorobenzyl)benzamide] reads 0.112 µM. For the molecule `COc1cccc(Oc2cccc(C(=O)NCCc3c[nH]c4ccc(Cl)cc34)c2)c1` [Cpd089, N-(2-(5-chloro-1H-indol-3-yl)ethyl)-3-(3-methoxyphenoxy)benzamide], the midpoint of the response, the EC50, lay at 0.098 µM. Consider `COc1cccc(Cc2ccc(C(=O)NCCc3c[nH]c4ccc(Cl)cc34)cc2)c1F` [Cpd068, N-(2-(5-chloro-1H-indol-3-yl)ethyl)-4-(2-fluoro-3-methoxybenzyl)benzamide], for which the EC50 is 0.148 µM. As for `O=C(NCCc1c[nH]c2ccc(Cl)cc12)c1cccc(Cc2ccc(Cl)cc2)c1` [Cpd050, N-(2-(5-chloro-1H-indol-3-yl)ethyl)-3-(4-chlorobenzyl)benzamide], the response was half-maximal at 0.05 µM (EC50). As for `Cn1cc(CCNC(=O)c2ccc(Cc3cccc(F)c3)cc2)c2cc(Cl)ccc21` [Cpd091, N-(2-(5-chloro-1-methyl-1H-indol-3-yl)ethyl)-4-(3-fluorobenzyl)benzamide], the EC50 is 0.581 µM.

Molecule `O=C(NCCc1c[nH]c2ccc(Cl)cc12)c1ccc(Cc2ccccc2C(F)(F)F)cc1` [Cpd041, N-(2-(5-chloro-1H-indol-3-yl)ethyl)-4-(2-(trifluoromethyl)benzyl)benzamide] displayed an EC50 of 0.08 µM. Compared with the last molecule, the EC50 is about 7.3-fold lower. The result for `N#Cc1cccc(Cc2cccc(C(=O)NCCc3c[nH]c4ccc(Cl)cc34)c2)c1` [Cpd038, N-(2-(5-chloro-1H-indol-3-yl)ethyl)-3-(3-cyanobenzyl)benzamide] reads 0.031 µM.

Broadly, the EC50 is the concentration giving half of the maximal effect. Read a high EC50 as a less potent agent.
